{
  "source": "patent US9700541B2",
  "about": "“Seizure therapy” (Creighton University, priority 2012, dated 2017)",
  "tested_on": "acute mouse hippocampal slices",
  "assay": "Extracellular recordings in CA3 stratum radiatum of acute hippocampal slices after complex I inhibition",
  "assay_type": "cell-based",
  "protocol": "FIG. 5A depicts electrophysiological recordings showing inhibition of mitochondrial complex I of the electron transport chain creates a hyperexcitable environment in acute mouse hippocampal slices. Epilepsy is defined as a neuronal state of hyperexcitability and hypersynchrony. […] The middle trace is an expansion of field potential marked by an asterisk in the top trace. Time-frequency analysis was performed on the signals to examine the component frequencies occurring during the field potentials. High frequency oscillations (HF05) in the 100-200 Hz bandwidth (called ripples) are normal and reflect small clusters of neurons firing action potentials synchronously. […] Fast ripples occur in humans and animals with epilepsy and are biomarkers for seizure-genic foci.\nIn Kv1.1−/− hippocampal slices, pathological high frequency oscillations are prevalent throughout the in Kv1.1−/− hippocampal network. In addition, there is an increase in neurotransmitter release probabilities at specific hippocampal circuit synapses. To experimentally mimic the mitochondrial pathology seen in epilepsy, a drug that impairs mitochondrial function at respiratory complex I, rotenone, was applied to control tissue. […] Fast ripples occur in humans and animals with epilepsy and are biomarkers for seizure-genic foci.",
  "note": "“Also recorded” adds a separate entry of the source.",
  "data": [
    {"smiles": "C=C(C)[C@H]1Cc2c(ccc3c2O[C@@H]2COc4cc(OC)c(OC)cc4[C@@H]2C3=O)O1", "note": "[rotenone]", "values": [
      {"measurement": "promotion of seizures", "setting": "acute application of rotenone to control tissue", "result": "sufficient to promote seizures"},
      {"measurement": "rate and amplitudes of spontaneous field potentials", "setting": "rotenone 100 nM, 30 min application", "result": "increases"},
      {"measurement": "high frequency oscillations (fast ripples), spectral organization", "setting": "rotenone application, control tissue", "result": "spectral disorganization and the generation of faster HFOs; also recorded: promotes spectral disorganization and the generation of pathologic high frequency oscillations"},
      {"measurement": "intensity of ripples and fast ripples", "setting": "rotenone applied to slices", "result": "increases"},
      {"measurement": "seizure-like events following high potassium (8 mM)", "setting": "rotenone-treated vs vehicle-treated slice", "result": "greater in amplitude and longer in duration"}
    ]}
  ]
}
